Data published in patent publication US8354414B2, “Substituted bicyclic pyrimidines” (Cephalon, Inc, priority 2006, dated 2013).
Read-outs that look alike come from different tables or passages of the source.

How the values were obtained:
CDK5/GST-p25 = target: T1, CDK5/GST-p25 (Homo sapiens, UniProt Q00535); experiment: Inhibition of CDK5/GST-p25 kinase activity (ELISA with time-resolved fluorescence readout); format: biochemical
T1 construct: The final construct, encoding for full-length human CDK5; made in house; host or cells: Sf21 insect cells (baculovirus co-infection)
Procedure, shortened: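 Sf21-coexpressed full-length human CDK5 with GST-p25 (p35 aa 108-307), glutathione-purified, at 2 ng/ml was reacted for 20 min at 37 °C on plate-coated GST-Rb(773-928). Buffer was 20 mM HEPES pH 7.2, 10 µM ATP, 10 mM MgCl2 and 2.5% DMSO. Phospho-Rb Ser-780 was detected by Eu-labelled antibody TRF, and IC50 curves were fitted.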

His6-GSK-3β = target: T2, His6-GSK-3β (Homo sapiens, UniProt P49841); experiment: Inhibition of His6-GSK-3β kinase activity (ELISA-based format, time-resolved fluorescence readout); format: biochemical; settings: for IC50: read-out: GSK3β IC50
T2 construct: made in house; host or cells: Sf21 insect cells (baculovirus)
Procedure, shortened: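 N-terminal His6-tagged full-length human GSK-3β (aa 2-419) expressed in Sf21 cells, 200 ng/ml, phosphorylating plate-coated GST-Rb with 20 μM ATP in pH 7.2 HEPES buffer, 30 min at 37° C. Phospho-Rb (Ser-780) detected by antibody plus Eu-labelled secondary, time-resolved fluorescence; IC50 from curves.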

T1 sequence (Q00535 whole entry): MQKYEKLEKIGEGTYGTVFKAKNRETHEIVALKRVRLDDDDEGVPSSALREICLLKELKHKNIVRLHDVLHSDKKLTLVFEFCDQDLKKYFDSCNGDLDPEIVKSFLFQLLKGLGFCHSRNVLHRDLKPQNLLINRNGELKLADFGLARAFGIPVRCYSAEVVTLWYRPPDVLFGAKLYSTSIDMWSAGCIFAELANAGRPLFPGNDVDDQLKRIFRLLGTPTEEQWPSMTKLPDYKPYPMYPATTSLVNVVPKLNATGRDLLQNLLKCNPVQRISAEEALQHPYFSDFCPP
T1 sequence (Q15078 108-307 partner limits assumed): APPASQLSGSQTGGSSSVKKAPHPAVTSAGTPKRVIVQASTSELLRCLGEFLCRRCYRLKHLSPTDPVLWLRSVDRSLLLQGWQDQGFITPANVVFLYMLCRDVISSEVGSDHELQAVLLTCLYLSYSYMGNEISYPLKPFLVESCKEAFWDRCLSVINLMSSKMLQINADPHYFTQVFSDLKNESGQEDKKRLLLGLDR
T2 sequence (P49841 2-419): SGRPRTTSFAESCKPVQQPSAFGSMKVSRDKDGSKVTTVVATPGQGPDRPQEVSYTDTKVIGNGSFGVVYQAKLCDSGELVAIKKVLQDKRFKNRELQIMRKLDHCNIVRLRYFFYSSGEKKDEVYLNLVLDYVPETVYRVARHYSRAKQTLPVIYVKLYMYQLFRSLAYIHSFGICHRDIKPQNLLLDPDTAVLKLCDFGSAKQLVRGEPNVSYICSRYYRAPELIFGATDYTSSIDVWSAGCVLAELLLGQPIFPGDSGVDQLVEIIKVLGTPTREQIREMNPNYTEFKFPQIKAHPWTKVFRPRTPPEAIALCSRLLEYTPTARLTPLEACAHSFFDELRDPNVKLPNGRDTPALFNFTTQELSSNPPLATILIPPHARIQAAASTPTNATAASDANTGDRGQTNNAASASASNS

Structure (SMILES) | IC50 (CDK5/GST-p25; class symbols) | IC50 (His6-GSK-3β; class symbols) | melting point | IC50 (CDK5/GST-p25; numeric bounds) | inhibition at 10 µM (CDK5/GST-p25) | GSK3β % @10 μM (His6-GSK-3β; @10 μM) | IC50 (His6-GSK-3β; numeric bounds)
CC(C)Cn1cc2c(C3C(=O)Nc4ccc(Cl)cc43)nc(NCCCN3CCOCC3)nc2n1 (stereo not drawn) [Example 271, 5-Chloro-3-[2-isobutyl-6-(3-morpholin-4-yl-propylamino)-2H-pyrazolo[3,4-d]pyrimidin-4-yl]-1,3-dihydro-indol-2-one] | < 300 nM | < 300 nM | 263 to 265.5 °C | – | – | – | –
CCCn1ncc2c(C3C(=O)Nc4ccc(Cl)cc43)ncnc21 (stereo not drawn) [Example 95, 5-Chloro-3-(1-propyl-2H-pyrazolo[3,4-d]pyrimidin-4-yl)-1,3-dihydro-indol-2-one] | – | > 10000 nM | 293 to 297 °C | > 3000 nM | – | – | –
CC(C)Cn1cc2c(C3C(=O)Nc4ccc(Br)cc43)nc(NCCN3CCOCC3)nc2n1 (stereo not drawn) [Example 264, 5-Bromo-3-[2-isobutyl-6-(2-morpholin-4-yl-ethylamino)-2H-pyrazolo[3,4-d]pyrimidin-4-yl]-1,3-dihydro-indol-2-one] | < 300 nM | < 300 nM | 282 to 287 °C | – | – | – | –
CCCCCn1cc2c(C3C(=O)Nc4ccc(C#N)cc43)nc(NC)nc2n1 (stereo not drawn) [Example 294, 3-(6-Methylamino-2-pentyl-2H-pyrazolo [3,4-d]pyrimidin-4-yl)-2-oxo-2,3-dihydro-1H-indole-5-carbonitrile] | – | – | > 310 °C | – | 73% | 70% @10 μM | –
COCCn1cc2c(C3C(=O)Nc4ccc(Br)cc43)nc(NCCCN(C)C)nc2n1 (stereo not drawn) [Example 233, 5-Bromo-3-[6-(3-dimethylamino-propylamino)-2-(2-methoxy-ethyl)-2H-pyrazolo [3,4-d]pyrimidin-4-yl]-1,3-dihydro-indol-2-one] | < 300 nM | < 300 nM | 297 to 298 °C | – | – | – | –
O=C1Nc2ccc(Cl)cc2C1c1ncnc2c1cnn2C1CCCCC1 (stereo not drawn) [Example 74, 5-Chloro-3-(1-Cyclohexyl-1H-pyrazolo[3,4-d]pyrimidin-4-yl)-1,3-dihydro-indol-2-one] | > 10000 nM | > 10000 nM | 300 to 305 °C | – | – | – | –
O=C1Nc2c(F)cc(F)cc2C1c1ncnc2nn(C3CCCC3)cc12 (stereo not drawn) [Example 35, 3-(2-Cyclopentyl-2H-pyrazolo[3,4-d]pyrimidin-4-yl)-5,7-difluoro-1,3-dihydro-indol-2-one] | – | 300 to 3000 nM | 296 to 297 °C | > 3000 nM | – | – | –
O=C1Nc2ccc(C(F)(F)F)cc2C1c1nc(NCc2cccnc2)nc2nn(C3CCCC3)cc12 (stereo not drawn) [Example 161, 3-{2-cyclopentyl-6-[(pyridin-3-ylmethyl)-amino]-2H-pyrazolo [3,4-d]pyrimidin-4-yl}-5-trifluoromethyl-1,3-dihydro-indol-2-one] | – | < 300 nM | > 300 °C | – | 68% | – | –
CCCn1cc2c(C3C(=O)Nc4ccc(S(=O)(=O)N(C)C)cc43)nc(NCCN(C)C)nc2n1 (stereo not drawn) [Example 205, 3-[6-(2-Dimethylamino-ethylamino)-2-propyl-2H-pyrazolo [3,4-d]pyrimidin-4-yl]-2-oxo-2,3-dihydro-1H-indole-5-sulfonic acid dimethylamide] | – | > 10000 nM | 259 to 263 °C | > 3000 nM | – | – | –
O=C1Nc2cc(Cl)ccc2C1c1ncnc2nn(C3CCCC3)cc12 (stereo not drawn) [Example 32, 6-Chloro-3-(2-Cyclopentyl-2H-pyrazolo [3,4-d]pyrimidin-4-yl)-2-oxo-1,3-dihydro-indol-2-one] | 300 to 3000 nM | – | 294 to 296 °C | – | – | – | > 3000 nM
O=C1Nc2ccc(Cl)cc2C1c1nc(NCCCN2CCOCC2)nc2nn(C3CCCC3)cc12 (stereo not drawn) [Example 278, 5-Chloro-3-[2-cyclopentyl-6-(3-morpholin-4-yl-propylamino)-2H-pyrazolo[3,4-d]pyrimidin-4-yl]-1,3-dihydro-indole-2-one] | 300 to 3000 nM | < 300 nM | 250 to 254.5 °C | – | – | – | –
CCOCCn1cc2c(C3C(=O)Nc4ccc(Br)cc43)nc(NC[C@H](C)O)nc2n1 (stereo partly drawn) [Example 238, 5-Bromo-3-[2-(2-ethoxy-ethyl)-6-((S)-2-hydroxy-propylamno)-2H-pyrazolo[3,4-d]pyrimidin-4-yl]-1,3-dihydro-indol-2-one] | < 300 nM | < 300 nM | 297 to 299 °C | – | – | – | –
CCCCCn1cc2c(C3C(=O)Nc4ccc(C#N)cc43)nc(NC(C)C)nc2n1 (stereo not drawn) [Example 295, 3-(6-Isopropylamino-2-pentyl-2H-pyrazolo[3,4-d]pyrimidin-4-yl)-2-oxo-2,3-dihydro-1H-indole-5-carbonitrile] | < 300 nM | < 300 nM | 199 °C (dec.) | – | – | – | –
C[C@@H](O)CNc1nc(C2C(=O)Nc3ccc(Br)cc32)c2cn(C3CCCC3)nc2n1 (stereo partly drawn) [Example 373] | – | < 300 nM | > 300 °C | – | 67% | – | –
CCOCCn1cc2c(C3C(=O)Nc4ccc(Cl)cc43)nc(Cl)nc2n1 (stereo not drawn) [Example 211, 5-Chloro-3-[6-chloro-2-(2-ethoxy-ethyl)-2H-pyrazolo[3,4-d]pyrimidin-4-yl]-1,3-dihydro-indol-2-one] | > 10000 nM | > 10000 nM | > 300 °C | – | – | – | –
O=C1Nc2ccc([N+](=O)[O-])cc2C1c1ncnc2nn(C3CCCCC3)cc12 (stereo not drawn) [Example 49, 3-(2-Cyclohexyl-2H-pyrazolo[3,4-d]pyrimidin-4-yl)-5-nitro-1,3-dihydroindol-2-one] | < 300 nM | < 300 nM | 301 to 304 °C | – | – | – | –
CNc1nc(C2C(=O)Nc3ccccc32)c2cn(C3CCCC3)nc2n1 (stereo not drawn) [Example 154, 3-(2-cyclopentyl-6-methylamino-2H-pyrazolo [3,4-d]pyrimidin-4-yl)-1,3-dihydro-indol-2-one] | – | 300 to 3000 nM | > 300 °C | – | 68% | – | –
Cl.NCCCNc1nc(C2C(=O)Nc3ccc(C(F)(F)F)cc32)c2cn(C3CCCC3)nc2n1 (stereo not drawn) [Example 254, 3-[6-(3-Amino-propylamino)-2-cyclopentyl-2H-pyrazolo[3,4-d]pyrimidin-4-yl]-5-trifluoromethyl-1,3-dihydro-indol-2-one hydrochloride salt] | 300 to 3000 nM | < 300 nM | 304 to 306 °C | – | – | – | –
C=CCNc1nc(C2C(=O)Nc3ccc(C#N)cc32)c2cn(C3CCCC3)nc2n1 (stereo not drawn) [Example 149, 3-(6-Allylamino-2-cyclopentyl-2H-pyrazolo[3,4-d]pyrimidin-4-yl)-2-oxo-2,3-dihydro-1H-indole-5-carbonitrile] | < 300 nM | < 300 nM | > 300 °C | – | – | – | –
O=C1Nc2ccc(C(F)(F)F)cc2C1c1ncnc2nn(C3CCCC3)cc12 (stereo not drawn) [Example 34, 3-(2-Cyclopentyl-2H-pyrazolo [3,4-d]pyrimidin-4-yl)-5-trifluoromethyl-1,3-dihydro-indol-2-one] | < 300 nM | < 300 nM | 292 to 293 °C | – | – | – | –
COCCn1cc2c(C3C(=O)Nc4ccc(Br)cc43)nc(NC[C@@H](C)O)nc2n1 (stereo partly drawn) [Example 231, 5-Bromo-3-[6-((R)-2-hydroxy-propylamino)-2-(2-methoxy-ethyl)-2H-pyrazolo[3,4-d]pyrimidin-4-yl]-1,3-dihydro-indol-2-one] | < 300 nM | < 300 nM | > 300 °C | – | – | – | –
CCCn1cc2c(C3C(=O)Nc4ccc(Br)cc43)nc(NCCCN(C)C)nc2n1 (stereo not drawn) [Example 198, 5-Bromo-3-[6-(3-dimethylamino-propylamino)-2-propyl-2H-pyrazolo [3,4-d]pyrimidin-4-yl]-1,3-dihydro-indol-2-one] | < 300 nM | < 300 nM | 286 to 290 °C | – | – | – | –
CCNc1nc(C2C(=O)Nc3ccc(C#N)cc32)c2cn(C3CCCC3)nc2n1 (stereo not drawn) [Example 166, 3-(2-cyclopentyl-6-ethylamino-2H-pyrazolo[3,4-d]pyrimidin-4-yl)-2-oxo-2,3-dihydro-1H-indole-5-carbonitrile] | – | < 300 nM | 373 °C (dec.) | – | 41% | – | –
O=C1Nc2cc(F)ccc2C1c1ncnc2nn(C3CCCCC3)cc12 (stereo not drawn) [Example 50, 3-(2-cyclohexyl-2H-pyrazolo[3,4-d]pyrimidin-4-yl)-6-fluoro-1,3-dihydro-indol-2-one] | 300 to 3000 nM | 300 to 3000 nM | 297 to 300 °C | – | – | – | –
CC(C)Nc1nc(C2C(=O)Nc3ccccc32)c2cn(C3CCCC3)nc2n1 (stereo not drawn) [Example 245, 3-(2-Cyclopentyl-6-isopropylamino-2H-pyrazolo[3,4-d]pyrimidin-4-yl)-1,3-dihydro-indol-2-one] | > 10000 nM | – | 303 to 305 °C | – | – | – | > 3000 nM
Cn1ncc2c(C3C(=O)Nc4ccc(Br)cc43)ncnc21 (stereo not drawn) [Example 85, 5-Bromo-3-(1-methyl-1H-pyrazolo[3,4-d]pyrimidin-4-yl)-1,3-dihydro-indol-2-one] | < 300 nM | – | > 350 °C | – | – | – | > 3000 nM
COCCNc1nc(C2C(=O)Nc3ccc(Cl)cc32)c2cn(CC(C)C)nc2n1 (stereo not drawn) [Example 272, 5-Chloro-3-[2-isobutyl-6-(2-methoxy-ethylamino)-2H-pyrazolo[3,4-d]pyrimidin-4-yl]-1,3-dihydro-indol-2-one] | < 300 nM | < 300 nM | 286 to 289 °C | – | – | – | –
O=C1Nc2ccc(C(F)(F)F)cc2C1c1ncnc2c1cnn2C1CCCCC1 (stereo not drawn) [Example 71, 3-(1-Cyclohexyl-1H-pyrazolo [3,4-d]pyrimidin-4-yl)-5-trifluoromethyl-1,3-dihydro-indol-2-one] | > 10000 nM | > 10000 nM | > 300 °C | – | – | – | –
